# Target: T1, PAR-2 (Homo sapiens, UniProt P55085)
# T1 construct: Human embryonic kidney 293 cells (HEK293) endogenously expressing PAR-2; endogenous in cells; host or cells: HEK293
# T1 sequence (P55085 26-397): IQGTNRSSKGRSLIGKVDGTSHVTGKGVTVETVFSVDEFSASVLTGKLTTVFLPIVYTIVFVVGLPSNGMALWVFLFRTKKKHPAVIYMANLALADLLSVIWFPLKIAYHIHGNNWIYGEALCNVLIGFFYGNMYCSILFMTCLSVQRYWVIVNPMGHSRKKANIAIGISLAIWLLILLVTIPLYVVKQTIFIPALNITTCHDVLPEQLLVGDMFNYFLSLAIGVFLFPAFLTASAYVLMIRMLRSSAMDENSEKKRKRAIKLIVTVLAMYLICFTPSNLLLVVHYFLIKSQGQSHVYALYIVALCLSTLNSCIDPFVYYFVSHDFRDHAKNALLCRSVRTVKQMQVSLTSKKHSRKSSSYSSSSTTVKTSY
# Test: Cell-based calcium assay (Fluo-4 AM) for PAR-2 antagonists, SLIGRL-evoked signal
# Settings: in the presence of 2 μM SLIGRL, HEK293 cells; read-out: IC50 of PAR-2 antagonism (inhibition of SLIGRL induced PAR-2 activation)
# Protocol: Cell-based calcium assay for the identification of PAR-2 antagonists based on fluorescent dye Fluo4-AM
# Functional modulation of PAR-2 by the tested compounds was measured and quantified using the calcium sensitive fluorescent probe Fluo-4 AM on a fluorescence microplate reader. Activation of PAR-2 by an agonist (SLIGRL) led to an increase in the intracellular calcium concentration and thus an increase in fluorescence intensity.
# Human embryonic kidney 293 cells (HEK293) endogenously expressing PAR-2 were cultured in DMEM (high glucose) supplemented with tetracycline-free FCS (10% v/v), L-glutamine (4 mM), blasticidin (15 μg/ml), zeocin (100 μg/ml) and puromycin (2 μg/ml) in a water-saturated atmosphere at 37° C. and 5% CO2.
# Cells were seeded onto 96-well clear-bottom black-walled assay plates at a density of 45,000 cells per well in 100 μl of cell culture medium. Intracellular calcium increase in the living cells due to receptor activation was monitored 24 h later using the calcium sensitive fluorescent probe Fluo-4 AM on a fluorescence microplate reader (FlexStation® system, Molecular Devices). Therefore 100 μl Krebs-HEPES (KH) buffer (118 mM NaCl; 4.7 mM KCl; 1.3 mM CaCl2; 1.2 mM MgSO4; 1.2 mM KH2PO4; 4.2 mM NaHCO3; 10 mM Hepes, pH 7.4) supplemented with sulfinpyrazone (250 μM) and Fluo-4 AM (4 μM) were added and the cells were incubated for an additional hour in a water-saturated atmosphere at 37° C. and 5% CO2.
# Medium was replaced with 150 μl KH buffer supplemented with sulfinpyrazone (250 μM). Subsequently, 50 μl KH buffer supplemented with the screening compounds (final concentration of 10 μM under measurement conditions) or control substances were added and the cells were incubated for 10 min. under assay conditions in the microplate reader. Changes in fluorescence were recorded at 37° C. after addition of 50 μl KH buffer supplemented with the PAR-2 peptide agonist SLIGRL (final concentration of 2 μM under measurement conditions).
# Calcium mobilization was quantified as the change of peak fluorescence (ΔF) over the baseline level (F). The data was analyzed with the software of the microplate reader. Potential PAR-2 antagonists were tested in an effective range of 1-100 μM for their capacity to reduce the SLIGRL-evoked signal.
# A cellular in vitro assay was developed with human embryonic kidney 293 cells (HEK293) endogenously expressing PAR-2. The PAR-2 activating peptide SLIGRL (EC50: ˜0.6 μM) was used as an agonistic stimulus with subsequent Fluo-4 dependent intracellular calcium detection (calcium imaging).
row,Compound,IC50 [µM]
1,"COc1ccc(CCC(=O)CC(=O)CCc2ccc(OC)cc2)cc1 [formula 3, 1,7-Bis-(4-methoxyphenyl)-3,5-heptanedione]",67.8
2,"COc1cc(CCC(=O)CC(=O)CCc2ccc(O)c(OC)c2)ccc1O [formula 4, 1,7-Bis-(4-hydroxy-3-methoxyphenyl)-3,5-heptanedione]",25 to 100
3,"COc1ccc(/C=C/C(=O)CC(=O)/C=C/c2ccc(OC)cc2)cc1 [formula 7, 1,7-Bis-(4-methoxyphenyl)-hepta-1,6-dien-3,5-dione]",25 to 100
4,"COc1cc(/C=C/C(=O)CC(=O)/C=C/c2ccc(O)c(OC)c2)ccc1O [formula 8, 1,7-Bis-(4-hydroxy-3-methoxyphenyl)-hepta-1,6-dien-3,5-dione]",25 to 100

# Source: patent US20160008297A1, “COMPOUNDS FOR PREVENTING, REDUCING AND/OR ALLEVIATING ITCHY SKIN CONDITION(S)” (B.R.A.I.N. Biotechnology Research And Information Network AG, priority 2012, published 2016)
